# Test results published in patent US12252701B2, “Chimeric antigen receptor T cell therapy” (KITE PHARMA, INC., priority 2020, dated 2025).
# How the values were obtained:
# [1] = Clinical pharmacokinetic data converted to in vitro concentrations; conditions: human, in vivo
# Source text: Given the different potencies of the JAK inhibitors and different pharmacokinetic properties for each drug, it was sought to test each drug at a relevant range of physiological concentrations based on clinical dosing and reported pharmacokinetic data from repeat dose studies. Reported Cmax values in patient sera were converted to in vitro concentrations and adjusted for reported plasma protein binding.
# [2] = tested on: NALM6.GFP.LUC.CD19 target cells; test: Serial killing assay; assay type: cell-based, human
# Protocol: CD19 CAR-T cells were thawed in RPMI media supplemented with HEPES, Penicillin/Streptomycin/L-Glutamine and 10% FBS and rested overnight. The following day, drugs were serially diluted and prepared in 96-well plates. Rested T cells were counted and normalized so that 25,000 or 8,333 T cells were plated with 25,000 NALM6.GFP.LUC.CD19 target cells (1:1 or 1:3 Effector:Target ratio) in the prepared 96-well plates. At 16 hour post-incubation and every 3-4 days, T cell killing of targets was measured via luciferase detection. D-luciferin substrate was added to the co-culture wells at a final concentration of 0.14 mg/mL and plates were incubated at 37° C. in the dark for 10 minutes. Luminescent signal was read immediately after in a VarioSkan™ LUX microplate reader. T cell-mediated cytotoxicity was calculated as follows: % Cytotoxicity=[1−luciferase signal of (sample of interest/target alone control)]*100. Afterwards, co-cultures were stained with LIVE/DEAD and antibodies against CD4, CD8 and KIP-1 and then washed. Cells were then analyzed and quantified via the Attune NxT flow cytometer. T cells were then repeatedly stimulated with fresh 25,000 target cells, and this process was repeated every 3-4 days.
# [3] = tested on: NALM6.GFP.LUC.CD19 target cells; test: Serial killing assay of CAR-T, percent cytotoxicity by luciferase detection
# [4] = tested on: phospho-STAT panel (pSTAT3/4/5), CD3+ T cells; test: phospho-STAT induction by IL-6, MesoScale Discovery phospho-STAT panel; assay type: cell-based, human; conditions: lower dose titration, CD3+ T cells; for pSTAT3: MSD signal (No stim. 123, IL-6 alone 5767); for pSTAT4: MSD signal (No stim. 281, IL-6 alone 3624); for pSTAT5: MSD signal (No stim. 324, IL-6 alone 2352)
# Summary of the method: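 CD19 CAR-T cells, PBMC or CD3+ T cells, rested overnight, were stimulated at 700,000 cells/well with 100 ng/ml IL6 plus compound for 20 minutes at 37° C. Cells were lysed in Tris buffer and pSTAT3/4/5 measured by MSD electrochemiluminescence immunoassay.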
# in vitro = conditions: human, CAR-T cells
# Protocol: 96-well plates were coated with 100 μl of KIP-1 antibody per well at 1 μg/ml in PBS and plates were incubated at 4° C. overnight. CAR-T cells were thawed and were rested in ImmunoCult expansion medium and incubated overnight at 37° C. Cells were then counted and resuspended at 2 million cells/ml and seed at 200,000 cells per well in 100 μl of expansion medium with 10 ng/ml recombinant IL2. For groups treated with KIP-1, 100 μl of expansion medium were added with 2× final drug dilutions. For CD3/CD28 treated groups, 100 μl of expansion media were added with 2× final drug dilutions containing 25 μl/ml of CD3/CD28 T cell activator from StemCell Technologies. Cells were then incubated at 37° C. After 4 days, cells were counted and diluted 1 to 8-fold in expansion media and then transferred to a 24-well plate. Cell counts were repeated at day 7 and transferred to T25 flasks. On day 11, all cells were harvested and counted.
# Nalm-6 luc = test: CAR-T cell killing assay (luciferase viability of tumor cells)
# [5] = E:T ratio 1:3, all doses tested
smiles,measurement,setting,value
Nc1nc2cccc(-c3ccc(CN4CCS(=O)(=O)CC4)cc3)n2n1 [GS-829845],clinically relevant dose level (in vitro concentration),[1],~4 µM
same,T-cell counts,[2]; E:T ratio 1:1,increased T-cell counts in a dose-dependent manner
same,serial killing,[2]; E:T ratio 1:1,enhanced serial killing
same,T-cell counts,[2]; [5],no negative impacts were observed
same,serial killing,[2]; [5],no negative impacts
same,impact on CAR-T serial killing (percent cytotoxicity),"[3]; E:T of 1:1, dose titration, repeat stimulation rounds",enhance serial killing
same,impact on CAR-T serial killing (percent cytotoxicity),"[3]; E:T of 1:3, dose titration, repeat stimulation rounds",no impact
CCS(=O)(=O)N1CC(CC#N)(n2cc(-c3ncnc4[nH]ccc34)cn2)C1 [baricitinib],reduction of clinical dosing required to avoid negative impacts on product performance,[2],roughly 4 fold
same,pSTAT3,[4]; IL-6 + drug 3.125 nM,5208
same,pSTAT4,[4]; IL-6 + drug 3.125 nM,2961
same,pSTAT5,[4]; IL-6 + drug 3.125 nM,1408
same,pSTAT3,[4]; IL-6 + drug 6.25 nM,2798
same,pSTAT4,[4]; IL-6 + drug 6.25 nM,2801
same,pSTAT5,[4]; IL-6 + drug 6.25 nM,1243
same,pSTAT3,[4]; IL-6 + drug 12.5 nM,2528
same,pSTAT4,[4]; IL-6 + drug 12.5 nM,1741
same,pSTAT5,[4]; IL-6 + drug 12.5 nM,827
same,pSTAT3,[4]; IL-6 + drug […] nM,1441
same,pSTAT4,[4]; IL-6 + drug […] nM,1359
same,pSTAT5,[4]; IL-6 + drug […] nM,710
same,pSTAT3,[4]; IL-6 + drug 50 nM,702
same,pSTAT4,[4]; IL-6 + drug 50 nM,1059
same,pSTAT5,[4]; IL-6 + drug 50 nM,586
same,pSTAT3,[4]; IL-6 + drug 100 nM,288
same,pSTAT4,[4]; IL-6 + drug 100 nM,690
same,pSTAT5,[4]; IL-6 + drug 100 nM,471
same,"viability at 0 day, 5 nM",in vitro,75%
same,"viability at 0 day, 10 nM",in vitro,75%
same,"viability at 4 day, 5 nM",in vitro,67.4%
same,"viability at 4 day, 10 nM",in vitro,58.9%
same,"viability at 8 day, 5 nM",in vitro,72.7%
same,"viability at 12 day, 5 nM",in vitro,82.3%
same,"viability at 12 day, 10 nM",in vitro,71.2%
same,Mean tumor cell death (%),"Nalm-6 luc; E:T ratio 1:1, dose 10 nM",97.9%
same,Mean tumor cell death (%),"Nalm-6 luc; E:T ratio 1:1, dose 20 nM",97.5%
same,Mean tumor cell death (%),"Nalm-6 luc; E:T ratio 1:1, dose 40 nM",85.7%
same,Mean tumor cell death (%),"Nalm-6 luc; E:T ratio 1:1, dose 60 nM",96.2%
same,Mean tumor cell death (%),"Nalm-6 luc; E:T ratio 1:1, dose 80 nM",96%
same,Mean tumor cell death (%),"Nalm-6 luc; E:T ratio 1:1, dose 100 nM",93.1%
same,Mean tumor cell death (%),"Nalm-6 luc; E:T ratio 1:3, dose 10 nM",65.6%
same,Mean tumor cell death (%),"Nalm-6 luc; E:T ratio 1:3, dose 20 nM",65%
same,Mean tumor cell death (%),"Nalm-6 luc; E:T ratio 1:3, dose 40 nM",67.4%
same,Mean tumor cell death (%),"Nalm-6 luc; E:T ratio 1:3, dose 60 nM",59%
same,Mean tumor cell death (%),"Nalm-6 luc; E:T ratio 1:3, dose 80 nM",55%
same,Mean tumor cell death (%),"Nalm-6 luc; E:T ratio 1:3, dose 100 nM",31.1%
same,Mean tumor cell death (%),"Nalm-6 luc; E:T ratio 1:9, dose 10 nM",25.4%
same,Mean tumor cell death (%),"Nalm-6 luc; E:T ratio 1:9, dose 20 nM",27.6%
same,Mean tumor cell death (%),"Nalm-6 luc; E:T ratio 1:9, dose 40 nM",26.1%
same,Mean tumor cell death (%),"Nalm-6 luc; E:T ratio 1:9, dose 60 nM",21.1%
same,Mean tumor cell death (%),"Nalm-6 luc; E:T ratio 1:9, dose 80 nM",3.97%
same,Mean tumor cell death (%),"Nalm-6 luc; E:T ratio 1:9, dose 100 nM",5.5%
same,impact on CAR-T serial killing (percent cytotoxicity),"[3]; two different E:T ratios, dose titration",negative impacts
